{"source": "paper PMC7611940", "about": "“A Conformation Selective Mode of Inhibiting SRC Improves Drug Efficacy and Tolerability” (Cancer Research, 2021)", "target": "SRC (Homo sapiens, UniProt P12931)", "sequence (P12931 2-536)": "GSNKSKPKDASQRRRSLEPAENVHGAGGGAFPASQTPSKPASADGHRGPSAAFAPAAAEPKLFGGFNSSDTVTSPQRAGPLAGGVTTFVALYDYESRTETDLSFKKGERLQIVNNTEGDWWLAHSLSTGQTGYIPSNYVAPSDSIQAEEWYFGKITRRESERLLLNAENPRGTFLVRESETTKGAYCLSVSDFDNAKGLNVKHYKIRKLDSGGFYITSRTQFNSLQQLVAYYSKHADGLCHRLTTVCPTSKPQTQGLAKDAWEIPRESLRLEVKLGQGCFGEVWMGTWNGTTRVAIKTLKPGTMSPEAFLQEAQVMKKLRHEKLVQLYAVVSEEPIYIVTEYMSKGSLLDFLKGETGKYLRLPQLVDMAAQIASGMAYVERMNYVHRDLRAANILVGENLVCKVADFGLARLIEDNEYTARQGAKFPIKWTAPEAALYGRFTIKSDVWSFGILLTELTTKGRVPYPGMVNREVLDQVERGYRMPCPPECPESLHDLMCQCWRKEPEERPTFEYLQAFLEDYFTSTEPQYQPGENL", "assay": "inhibition of SRC autophosphorylation (pY419) in cells, Western blot", "type": "cell-based", "data": [{"smiles": "COc1cc(Nc2c(C#N)cnc3cc(OCCCN4CCN(C)CC4)c(OC)cc23)c(Cl)cc1Cl", "note": "[bosutinib]", "values": [{"measurement": "inhibition of SRC autophosphorylation (pY419) in cells, Western blot", "result": "Bosutinib and saracatinib displayed weaker inhibition of SRC autophosphorylation in all the cell lines tested"}]}]}
